According to patent US11109593B2, “Isoxazolin-5-one derivative and herbicide containing same as active ingredient” (HOKKO CHEMICAL INDUSTRY CO., LTD., priority 2017, dated 2021):

Assays:
Format in all cases: in vivo
Scirpus juncoides [1] = assay: Test Example 1: herbicidal effect test by treatment of rice paddy soil (immediately after seeding); details: 120 g/10a active ingredient, dry weight vs untreated area, 14 days after treatment
Summary of the method: (§1)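 Paddy soil in pots with compound fertilizer, puddled; 30 seeds per species sown at 0–1 cm, flooded ~3 cm, greenhouse. Water-diluted emulsions dropped onto water immediately after seeding at 120 g active ingredient per 10 ares, duplicate. Herbicidal rate (%) from plant dry weight versus untreated, 14 days after treatment.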

[2] = tested on: broad leaf weeds (Lindernia pyxidaria and Monochoria vaginalis); assay: as above; details: 120 g/10a active ingredient, dry weight vs untreated area, 14 days after treatment
Summary of the method: as §1

Echinochloa crus-galli [3] = assay: as above; details: 120 g/10a active ingredient, dry weight vs untreated area, 14 days after treatment
Summary of the method: as §1

southern crabgrass [4] = assay: Test Example 4: herbicidal effect test by treatment of leave and stem in dry field farming (seven days after seeding); details: 120 g/10a active ingredient; emulsion sprayed seven days after seeding; evaluated 14 days after treatment
Summary of the method: (§2)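 Twenty seeds per species were mixed into the top 1 cm of alluvial soil in 36 cm^2 pots; emulsions were sprayed seven days after seeding at 100 L per 10 ares (120 g active ingredient per 10 ares). Herbicidal rate (%) = {1 − treated/untreated mean dry weight} × 100, 14 days after treatment, duplicate.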

Amaranthus viridis [5] = assay: as above; details: 120 g/10a active ingredient; emulsion sprayed seven days after seeding; evaluated 14 days after treatment
Summary of the method: as §2

Chenopodium album [6] = assay: as above; details: 120 g/10a active ingredient; emulsion sprayed seven days after seeding; evaluated 14 days after treatment
Summary of the method: as §2

Echinochloa crus-galli [7] = assay: as above; details: 120 g/10a active ingredient; emulsion sprayed seven days after seeding; evaluated 14 days after treatment
Summary of the method: as §2

Scirpus juncoides [8] = assay: Test Example 2: herbicidal effect test by treatment during growing period in paddy rice cultivation (seven days after seeding); details: 120 g/10a active ingredient, assessed 14 days after treatment, dry weight vs untreated area
Summary of the method: (§3)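 Greenhouse flooded-pot test, seeds sown in puddled paddy soil; emulsion applied into water 7 d after seeding, 120 g a.i./10 a. Dry-weight-based herbicidal rate at 14 d, n=2.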

[9] = tested on: broad leaf weeds (Lindernia pyxidaria and Monochoria vaginalis); assay: as above; details: 120 g/10a active ingredient, assessed 14 days after treatment, dry weight vs untreated area
Summary of the method: as §3

Echinochloa crus-galli [10] = assay: as above; details: 120 g/10a active ingredient, assessed 14 days after treatment, dry weight vs untreated area
Summary of the method: as §3

southern crabgrass [11] = assay: Test Example 3: herbicidal effect test by treatment of dry field farming soil (one day after seeding); details: 120 g/10a active ingredient, evaluated 14 days after treatment
Summary of the method: (§4)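 Compound emulsions are sprayed on the soil surface one day after sowing (120 g a.i. per 10 ares) before weeds emerge. Effect is expressed as percent dry-weight reduction versus untreated controls 14 days post-treatment.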

Amaranthus viridis [12] = assay: as above; details: 120 g/10a active ingredient, evaluated 14 days after treatment
Summary of the method: as §4

Chenopodium album [13] = assay: as above; details: 120 g/10a active ingredient, evaluated 14 days after treatment
Summary of the method: as §4

Echinochloa crus-galli [14] = assay: as above; details: 120 g/10a active ingredient, evaluated 14 days after treatment
Summary of the method: as §4

Structure (SMILES)	Herbicidal rate (%) Scirpus juncoides (Scirpus juncoides [1]) [%]	Herbicidal rate (%) Lindernia pyxidaria [2] [%]	Herbicidal rate (%) Monochoria vaginalis [2] [%]	Herbicidal rate (%) Echinochloa crus-galli (Echinochloa crus-galli [3]) [%]	herbicidal effect (herbicidal rate), southern crabgrass (southern crabgrass [4]) [%]	herbicidal effect (herbicidal rate), Amaranthus viridis (Amaranthus viridis [5]) [%]	herbicidal effect (herbicidal rate), Chenopodium album (Chenopodium album [6]) [%]	herbicidal effect (herbicidal rate), Echinochloa crus-galli (Echinochloa crus-galli [7]) [%]	Herbicidal rate (%) Scirpus juncoides (Scirpus juncoides [8]) [%]	Herbicidal rate (%) Lindernia pyxidaria [9] [%]	Herbicidal rate (%) Monochoria vaginalis [9] [%]	Herbicidal rate (%) Echinochloa crus-galli (Echinochloa crus-galli [10]) [%]	herbicidal rate, southern crabgrass (southern crabgrass [11]) [%]	herbicidal rate, Amaranthus viridis (Amaranthus viridis [12]) [%]	herbicidal rate, Chenopodium album (Chenopodium album [13]) [%]	herbicidal rate, Echinochloa crus-galli (Echinochloa crus-galli [14]) [%]
Cc1ccc(C(C)n2oc(=O)c(Cc3ccccc3NS(=O)(=O)C(F)(F)F)c2C)cc1 (stereo not shown) [Compound 1-208]	90	80	90	90	0	40	40	90	80	60	90	90	50	40	40	100
CCc1c(Cc2ccccc2NS(=O)(=O)C(F)(F)F)c(=O)on1C(C)C [Compound 1-63]	100	100	100	90	60	40	60	90	90	80	90	80	90	40	40	90
CCCC(C)n1oc(=O)c(Cc2ccccc2N(C(=O)C2CC2)S(=O)(=O)C(F)(F)F)c1C (stereo not shown) [Compound 1-408]	90	80	80	100	90	40	70	90	90	70	60	90	100	80	60	100
CCC(=O)N(c1ccccc1Cc1c(C)n(C(C)COC)oc1=O)S(=O)(=O)C(F)(F)F (stereo not shown) [Compound 1-319]	90	90	90	90	90	40	40	90	90	90	90	90	90	90	90	90
Cc1c(Cc2ccccc2NS(=O)(=O)C(F)(F)F)c(=O)on1C(c1ccccc1)C(C)C (stereo not shown) [Compound 1-213]	90	90	90	100	90	40	50	90	80	70	80	90	100	100	100	100
CSCCn1oc(=O)c(Cc2ccccc2N(C(=O)CC(C)C)S(=O)(=O)C(F)(F)F)c1C [Compound 1-358]	90	90	90	90	90	40	40	90	90	90	90	90	90	90	90	90
CCC(C)n1oc(=O)c(Cc2ccccc2N(C(=O)c2ccccn2)S(=O)(=O)C(F)(F)F)c1C (stereo not shown) [Compound 1-528]	90	90	90	90	90	40	40	90	90	90	90	90	90	90	90	90
COCC(C)n1oc(=O)c(Cc2ccccc2N(C(=O)OCC(C)C)S(=O)(=O)C(F)(F)F)c1C (stereo not shown) [Compound 1-675]	90	90	90	90	90	40	40	90	90	90	90	90	90	90	90	90
Cc1c(Cc2ccccc2N(C(=O)C2CC2)S(=O)(=O)C(F)(F)F)c(=O)on1C(C)c1ccccc1 (stereo not shown) [Compound 1-416]	90	90	90	90	90	40	40	90	90	90	90	90	90	90	90	90
CCC(C)n1oc(=O)c(Cc2ccccc2N(C(=O)OCC(C)C)S(=O)(=O)C(F)(F)F)c1C (stereo not shown) [Compound 1-669]	90	90	90	90	90	40	40	90	90	90	90	90	90	90	90	90
